# From US20240229155A1, “M[…] FOR THE TREATMENT OF GLIOBLASTOMA AND OTHER CANCERS” (Duke University, priority 2021, published 2024)
# Entries after “also recorded” stand apart in the source; their conditions may differ.
# Assays:
# [1] = tested on: STING promoter CpG site cg16983159; experiment: cg16983159 site-specific methylation qPCR assay after decitabine treatment of GBM cell lines; format: cell-based, human; details: 250 nM decitabine for 5 days vs DMSO; GBM cell lines with high STING promoter methylation
# Experimental: (§1) Decitabine Treatment: Decitabine was dissolved in DMSO to produce a stock concentration of 10 mM. This stock concentration was diluted directly before each treatment at a 1:100 ratio with 1×PBS to create the working solution with a concentration of […].
# (§2) Cells were seeded at density of 30,000 cells/well in 6-well plates. Each cell line was seeded in 2 mL of the same media in which they were cultured (cells were cultured in media according to ATCC). The following day (Day 0), a volume of decitabine working solution was added directly to the wells to reach the desired concentration. In the DMSO control wells, DMSO was diluted 1:100 in PBS, with the same amount of DMSO:PBS solution added as that of the decitabine condition. […]
# STING Methylation qPCR Methods: Bisulfite conversion of 25 ng to lug gDNA was done using the EpiTect Bisulfite Kit (Qiagen 59104) following manufactures protocol. […] Percent methylation was calculated as 1/(1+1/(2^-ΔCt))×100 with ΔCt=FAM −VIC. […]
# cg16983159 site-specific methylation qPCR assay: A site-specific qPCR assay for measuring cg16983159 methylation was developed using the method described by Yu et al. (Yu et al., 2019). […] Percent methylation was calculated as 100%×1/1+2ΔCt where ΔCt=FAM−VIC. […]
# STING (TMEM173) mRNA = experiment: STING mRNA expression (qPCR) after decitabine treatment of GBM cell lines; format: cell-based, human; details: 250 nM decitabine for 5 days vs DMSO, normalized to beta actin
# Experimental: as §1
# as §2, with “concentration.” for “concentration. In the DMSO control wells, DMSO was diluted 1:100 in PBS, with the same amount of DMSO:PBS solution added as that of the decitabine condition.”
# Protocol for mRNA Expression: RNA expression was measured by converting 250 ng to lug of RNA to cDNA with the iScript cDNA conversion kit (BioRad Cat #1708891) in 20 μL total. […]
# 20× PrimePCR Primers targeting B-actin (BioRad #qHsa CED0036269), and TMEM173 (BioRad #qHsa CID00010565), were used. Fold change (2^(−Delta Delta Ct) was calculated using B-actin as the housekeeping gene.
# Quantitative gene expression analysis: RNA/DNA were co-extracted from cells using Qiagen AllPrep DNA/RNA/miRNA Universal Kit mini kit (Qiagen) for decitabine experiments, and Quick-DNA/RNA™Miniprep Kit for baseline cell expression/methylation, following the manufacturer's protocols. RNA expression was measured by converting 250 ng to 1 μg RNA to 25 cDNA with the iScript cDNA conversion kit (BioRad). […]
# DNMT1 = biological target: T1, DNMT1 (Homo sapiens, UniProt P26358); experiment: Western blot of DNMT1 after decitabine treatment of GBM cell lines; format: cell-based; details: 250 nM decitabine for 5 days vs DMSO; GBM cell lines with high STING promoter methylation
# T1 construct: Western blot analysis showing DNMT1 and STING expression following decitabine or DMSO treatment; endogenous in cells; host or cells: GBM/glioma cell lines
# Experimental: (§3) Cells were seeded at density of 30,000 cells/well in 6-well plates. Each cell line was seeded in 2 mL of the same media in which they were cultured (cells were cultured in media according to ATCC). The following day (Day 0), a volume of decitabine working solution was added directly to the wells to reach the desired concentration. In the DMSO control wells, DMSO was diluted 1:100 in PBS, with the same amount of DMSO:PBS solution added as that of the decitabine condition. On days 1-5, the media was refreshed, such that the media being added to the wells contained the respective decitabine/DMSO concentration and were prepared immediately before their addition. The cells were harvested for protein on day 6.
# (§4) Western Blots: Cells were washed 2× with ice cold 1×PBS and lysed on ice with RIPA lysis buffer, containing protease/phosphatase inhibitors, and benzonase. Lysates were spun down for 15 min 14,000×g at 4 degrees C. Protein was denatured, ran on 4-12% NuPage Bis-Tris gels in 1×MOPS buffer, and transferred to PVDF membrane. The membrane was blocked in 5% Blotting grade blocker (BioRad 170-6404) dissolved in 1×TBS 0.1% TWEEN. Primary antibody was added according to manufacturer's protocol and incubated overnight at 4° C. Membranes were then incubated with secondary HRP antibody and screened with Supersignal Pico ECL. […]
# STING = experiment: Western blot of STING after decitabine treatment of GBM cell lines; format: cell-based, human; details: 250 nM decitabine for 5 days vs DMSO
# Experimental: as §3, §4
# cGAS = experiment: Western blot of cGAS after decitabine treatment of GBM cell lines; format: cell-based, human; details: 250 nM decitabine for 5 days vs DMSO
# Experimental: as §3, §4
# STING pathway = experiment: Western blot for STING pathway activation: decitabine pretreatment followed by 2′3′-cGAMP; format: cell-based, human; details: for STING pathway activation (pTBK1 and pIRF3 expression) in response to cGAMP: 250 nM decitabine for 5 days, then 2′3′-cGAMP, protein at 4 h and 24 h, cell lines previously unresponsive to cGAMP
# Experimental: (§5) Western Blots: Cells were washed 2× with ice cold 1×PBS and lysed on ice with RIPA lysis buffer, containing protease/phosphatase inhibitors, and benzonase. Lysates were spun down for 15 min 14,000×g at 4 degrees C. Protein was denatured, ran on 4-12% NuPage Bis-Tris gels in 1×MOPS buffer, and transferred to PVDF membrane. The membrane was blocked in 5% Blotting grade blocker (BioRad 170-6404) dissolved in 1×TBS 0.1% TWEEN. Primary antibody was added according to manufacturer's protocol and incubated overnight at 4° C. Membranes were then incubated with secondary HRP antibody and screened with Supersignal Pico ECL. A ChemiDoc MP (BioRad) and an iBright 1500FL imager (ThermoFisher) were used to detect the ECL signal.
# Protein Isolation and Western Blotting: Cells were washed 2× with ice cold 1×PBS and lysed on ice with RIPA lysis buffer, containing protease/phosphatase inhibitors, and benzonase. Lysates were spun down for 15 min at 14,000×g at 4° C. Protein was denatured at 95° C. for 5 min, ran on 4-12% NuPage Bis-Tris gels in 1×MOPS buffer, and transferred to PVDF membrane. The membrane was blocked in 5% Blotting grade blocker (BioRad) dissolved in 1×TBS 0.1% TWEEN20. Primary antibody was added according to manufacturer's protocol and incubated overnight at 4° C. Membranes were incubated with secondary HRP antibody (Cell Signaling) and screened with Supersignal Pico ECL (ThermoFisher). A ChemiDoc MP (BioRad) and an iBright 1500FL imager (ThermoFisher) were, used to detect the ECL signal. Primary antibodies were used to the following targets: pSTING (Ser366), STING, cGAS, pTBK1 (Ser172), TBK1, pIRF3 (Ser396), IRF3, pSTAT1 (Tyr701), STAT1, IFIT1, ISG15, DNMT1, β-actin (Cell Signaling), IRF3 (Biolegend).
# Cell treatment with decitabine: Decitabine (Millipore-Sigma) was dissolved in DMSO to stock concentration of 10 mM and diluted directly before each treatment in 1×PBS. Cells were seeded at 3×10^4 cells/well in 6-well plates (protein) or 1.7×10^5 cells in 10 cm dishes (RNA/DNA). Matched concentrations of DMSO was used as a control. Media was refreshed with treatment daily for 5 days. […]
# [2] = tested on: CpG sites in a ~400 nucleotide window centered on cg16983159; experiment: Semi-quantitative methylation sequencing assay of bisulfite-treated glioma cell lines; format: cell-based, human; details: LN229 and U138 cells, decitabine vs DMSO
# Experimental: Semi-quantitative methylation sequencing assay: Bisulfite treated DNA was PCR amplified for 40 cycles at 62° C. annealing temperature. Amplification reaction—10 μM of each primer, 25 mM MgCl2, 2.5 mM dNTPs, lx buffer, 0.7U HotStarTaq (Qiagen). Amplicons were sent to Azenta for purification and sanger sequencing with difficult template. Sequence traces were aligned. Percent methylation at the CpGs in the amplicons were estimated by comparing the C peak to the T peak.
# Cell treatment with decitabine: Decitabine (Millipore-Sigma) was dissolved in DMSO to stock concentration of 10 mM and diluted directly before each treatment in 1×PBS. Cells were seeded at 3×10^4 cells/well in 6-well plates (protein) or 1.7×10^5 cells in 10 cm dishes (RNA/DNA). Matched concentrations of DMSO was used as a control. Media was refreshed with treatment daily for 5 days. Cells were harvested for protein, RNA and DNA on day 6, or treated with 2′3′-cGAMP for an additional 4 and 24 h and harvested for protein.
# [3] = tested on: cGAS/STING DNA sensing pathway; experiment: Response of GBM cell lines to cGAS (ISD) and STING (cGAMP) agonists, Western blot; format: cell-based, human
# Experimental: as §5
# Protein Isolation and Western Blotting: Cells were washed 2× with ice cold 1×PBS and lysed on ice with RIPA lysis buffer, containing protease/phosphatase inhibitors, and benzonase. Lysates were spun down for 15 min at 14,000×g at 4° C. Protein was denatured at 95° C. for 5 min, ran on 4-12% NuPage Bis-Tris gels in 1×MOPS buffer, and transferred to PVDF membrane. The membrane was blocked in 5% Blotting grade blocker (BioRad) dissolved in 1×TBS 0.1% TWEEN20. Primary antibody was added according to manufacturer's protocol and incubated overnight at 4° C. Membranes were incubated with secondary HRP antibody (Cell Signaling) and screened with Supersignal Pico ECL (ThermoFisher). […]
# GBM cell suspensions = experiment: Cytokine secretion of CD14-separated GBM cell suspensions after 2′3′-cGAMP; format: cell-based, human; details: GBM cell suspensions separated by CD14; 48 h
# [4] = tested on: GBM tissue slice cultures; experiment: Ex vivo GBM slice culture assay with 2′3′-cGAMP; format: cell-based, human; details: 5 μg/ml, 48 h, TAMC vs tumor cells
# Experimental: GBM slice culture assay: Surgically resected, de-identified newly diagnosed GBM tissue was acquired under a Duke IRB approved protocol within hours of resection. Slice culture studies in this manuscript are extended/additional analyses of slice culture data sets reported in a prior study where the pattern of PRR signaling vs virotherapy was compared (Brown et al., 2021). A portion (˜25%) of fresh tissue was analyzed by flow cytometry to determine relative immune cell subset densities using the following flow cytometry panel after 1:20 Human Tru-Stain FcX treatment (BioLegend): CD45-BUV395 (BD Biosciences), CD14-BV421, CD33-BV510, CD49d-BV605, HLA-DR-BV786, CD31-FITC, CD3/19-BUV737, CD11b-APC, CD16-BV711, CD15-APC-fire7, and either CD155-PE or isotype control-PE antibody (all BioLegend); viability stain (7-AAD, BioLegend) was added after staining. Fresh remaining tissue was sliced into quarters, followed by slicing to −2 mm diameter fragments with a #10 scalpel (Hill-Rom). Slices were cultured in RPMI-1640 (Invitrogen) supplemented with 10% FBS (Sigma-Aldrich), 100 ng/ml EGF (R&D Biosystems); 5 μg/ml insulin (Gibco); 100 ng/ml hydrocortisone (Sigma-Aldrich). […] Supernatant cytokines were measured using the Human Antiviral Legendplex kit and Human Pro-inflammatory Chemokine kit (both BioLegend), per manufacturer's instructions. […]
# [5] = tested on: GBM tissue slice cultures; details: ex vivo GBM tissue slice cultures (Brown et al., 2021); cited from earlier work
# T1 sequence (P26358 whole entry): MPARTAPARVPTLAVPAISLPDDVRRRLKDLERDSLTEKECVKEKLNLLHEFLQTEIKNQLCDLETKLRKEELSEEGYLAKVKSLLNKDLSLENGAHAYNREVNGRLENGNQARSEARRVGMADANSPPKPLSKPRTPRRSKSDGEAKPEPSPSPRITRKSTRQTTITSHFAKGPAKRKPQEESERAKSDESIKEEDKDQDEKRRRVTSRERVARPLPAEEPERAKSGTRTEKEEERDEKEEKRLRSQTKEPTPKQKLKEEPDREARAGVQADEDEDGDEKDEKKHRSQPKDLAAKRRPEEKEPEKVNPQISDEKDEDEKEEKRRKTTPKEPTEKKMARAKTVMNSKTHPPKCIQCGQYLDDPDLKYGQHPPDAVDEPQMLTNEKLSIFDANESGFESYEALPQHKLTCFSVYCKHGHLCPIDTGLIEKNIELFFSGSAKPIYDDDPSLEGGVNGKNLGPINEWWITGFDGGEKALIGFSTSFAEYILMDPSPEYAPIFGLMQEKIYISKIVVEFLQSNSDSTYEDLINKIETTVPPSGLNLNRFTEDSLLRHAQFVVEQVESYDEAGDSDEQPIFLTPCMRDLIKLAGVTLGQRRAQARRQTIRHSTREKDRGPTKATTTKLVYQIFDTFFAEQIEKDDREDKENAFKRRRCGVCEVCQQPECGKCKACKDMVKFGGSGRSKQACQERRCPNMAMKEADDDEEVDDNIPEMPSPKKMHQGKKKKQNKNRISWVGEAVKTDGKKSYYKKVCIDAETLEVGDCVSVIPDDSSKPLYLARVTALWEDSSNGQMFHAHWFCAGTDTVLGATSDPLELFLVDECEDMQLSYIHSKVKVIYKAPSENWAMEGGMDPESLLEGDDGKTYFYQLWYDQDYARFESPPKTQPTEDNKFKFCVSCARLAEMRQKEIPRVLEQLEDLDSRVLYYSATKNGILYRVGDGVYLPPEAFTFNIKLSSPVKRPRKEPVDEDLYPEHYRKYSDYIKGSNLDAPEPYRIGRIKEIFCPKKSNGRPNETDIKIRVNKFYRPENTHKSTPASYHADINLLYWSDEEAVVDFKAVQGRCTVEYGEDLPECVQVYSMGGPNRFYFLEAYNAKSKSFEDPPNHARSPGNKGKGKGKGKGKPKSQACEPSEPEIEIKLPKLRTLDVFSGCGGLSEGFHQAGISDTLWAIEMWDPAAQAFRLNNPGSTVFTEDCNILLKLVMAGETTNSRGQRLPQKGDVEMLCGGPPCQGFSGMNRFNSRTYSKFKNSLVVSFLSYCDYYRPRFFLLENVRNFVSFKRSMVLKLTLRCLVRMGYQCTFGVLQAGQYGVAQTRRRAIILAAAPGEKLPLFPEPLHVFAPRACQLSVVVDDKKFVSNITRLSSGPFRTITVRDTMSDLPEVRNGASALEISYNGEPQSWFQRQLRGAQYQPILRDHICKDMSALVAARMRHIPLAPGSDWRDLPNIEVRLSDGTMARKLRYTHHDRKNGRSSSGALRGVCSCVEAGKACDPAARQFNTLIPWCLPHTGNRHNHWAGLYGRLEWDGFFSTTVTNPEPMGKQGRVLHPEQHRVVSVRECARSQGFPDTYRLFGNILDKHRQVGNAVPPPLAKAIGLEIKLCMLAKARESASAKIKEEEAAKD
structure (smiles),measurement,setting,value
"Nc1ncn([C@H]2C[C@H](O)[C@@H](CO)O2)c(=O)n1 [Decitabine, 5-azadeoxycytidine]",STING cg16983159 methylation,[1],decreased
same,STING mRNA expression,STING (TMEM173) mRNA,increased
same,DNMT1 expression (Western blot),DNMT1,significant suppression; also recorded: suppressed
same,STING protein expression,STING,increased
same,cGAS expression (Western blot),cGAS,induces
same,STING pathway activation (pTBK1 and pIRF3 expression) in response to cGAMP,STING pathway,restores STING signaling
same,STING pathway activation (pTBK1 and pIRF3 expression) in response to cGAMP,STING pathway; listed as decitabine,reactivation or enhancement of the pathway
same,"markers of downstream IFN activation (pSTAT1, IFIT1, ISG15)",STING pathway; decitabine pretreatment for 5 days followed by cGAMP,induced
same,methylation state of CpG sites around cg16983159 (bisulfite sequencing),[2],"cg16983159 and upstream CpG sites are demethylated, while downstream sites are not"
"Nc1nc2c(ncn2[C@@H]2O[C@@H]3COP(=O)(O)O[C@H]4[C@@H](O)[C@H](n5cnc6c(N)ncnc65)O[C@@H]4COP(=O)(O)O[C@@H]2[C@@H]3O)c(=O)[nH]1 [cGAMP, 2′3′-cGAMP]","downstream response (pTBK1, pIRF3) to STING agonist","[3]; A172 cell line, high baseline STING expression",strong downstream response
same,"downstream response (pTBK1, pIRF3) to STING agonist","[3]; U138MG cell line, no STING expression",failed to activate pTBK1 or pIRF3
same,CXCL10 induction,GBM cell suspensions,occurred only in CD14+ containing glioma cell suspensions
same,TNF induction,GBM cell suspensions,occurred only in CD14+ containing glioma cell suspensions
same,IFIT1 induction (flow cytometry),[4],induced selectively in TAMC
same,CXCL10 induction,[5],induced
same,type I IFNs induction,[5],induced
